Each structure is given as a SMILES string. “And” between values parts separate entries of the source, which are not always exact repeats. Equal values may be shown once.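 Interpolation was linear, between the two tested concentrations surrounding the appropriate level; five concentrations were tested over 48 hours in 96-well plates. The concentration for 50% growth inhibition is given as GI50. TGI is the concentration that stops growth completely.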 Where a SMILES comes first, the peptide text is derived from it. [ ]: non-standard residue; d: D form. 2Nal = N[CH](Cc1ccc2ccccc2c1)C(=O)O

For 13 molecules, GI50 and TGI results are on record in PubChem BioAssay (NCI).

Experiment in all cases: NCI-60 cell line screen, 48 h
The subject of assay [1] is SK-OV-3 ovarian.
The subject of assay [2] is T-47D breast.
Assay [3] concerns MALME-3M melanoma.
In assay [4] the test system is DU-145 prostate.
For assay [5], the system named is SR leukemia.
In assay [6] the test system is HL-60(TB) leukemia.
The subject of assay [7] is MCF7 breast.
The subject of assay [8] is HOP-62 NSCLC.
Assay [9] concerns RXF 393 renal.
For assay [10], the system named is MOLT-4 leukemia.

With `CN(C)CCCC1(c2ccc(F)cc2)OCc2cc(-c3ccc4cc[nH]c4c3)ccc21` (stereo unspecified), the GI50 in assay [1] was 3.38 µM; in [2] it was 2.01 µM; in assay [3] it was 1.71 µM; in [4], 1.9 µM; in assay [5] it was 2.41 µM; in [6] it was 1.74 µM. Moreover, the GI50 in [7] is 1.65 µM; in assay [8] it was 1.71 µM; in assay [9] it was 2.48 µM; in [10] it was 2.04 µM. The TGI was determined as 12.9 µM in assay [1]; 5.17 µM in assay [2]; 3.32 µM in [3]; 3.46 µM in [4]; 5.41 µM in [5]; 3.77 µM in [6]. Also, the TGI came to 3.24 µM in assay [7], 3.71 µM in assay [8], 7.56 µM in assay [9] and 4.34 µM in assay [10].

As to `C[C@]12CC[C@H]3[C@@H](C[C@@H]4SC(Nc5cccc(F)c5)=N[C@@]45CC(=O)CC[C@]35C)[C@@H]1CCC2=O`, the GI50 is 2.33 µM in [1]; 2.22 µM in assay [2]; 1.94 µM in assay [3]; 1.93 µM in [4]; 2.73 µM in assay [6]; 1.37 µM in assay [7]. Moreover, the figures for the GI50 in assay [8], in [9] and in [10] were 2.07 µM, 1.45 µM and 1.68 µM, respectively. The TGI in assay [1] amounted to 6.1 µM; in assay [2], 6.95 µM; in assay [3], 5.04 µM; in assay [4], 4.87 µM; in [6], 8 µM; in [7], 3.28 µM. In addition, the TGI in assay [8] is 5.34 µM; in assay [9], 3.25 µM; in assay [10], 28.3 µM.

Turning to `O=C(Oc1ccc([N+](=O)[O-])cc1)N1CCC(C(O)(c2ccc3c(c2)OCO3)c2ccc3c(c2)OCO3)CC1`, the GI50 in assay [1], in assay [2], in [3], in assay [4], in assay [5] and in assay [6] was over 100 µM in each case. In addition, the GI50 in [7], in assay [8], in [9] and in assay [10] was over 100 µM each time. For the same molecule, the TGI in assay [1], in assay [2], in [3], in assay [4], in assay [5] and in [6] was over 100 µM each time. In addition, the TGI in assay [7], in assay [8], in [9] and in [10] was over 100 µM in each case.

In the case of `C=CC1=C(C)C2=NC1=CC1=NC(=C(CC)/C1=C/O)C=C1C=C3C(=O)C(C(=O)OC)C(=C4NC(=C2)C(C)C4CCC(=O)OC/C=C(\C)CCCC(C)CCCC(C)CCCC(C)C)C3=N1` (stereo unspecified) (tested in a mixture with another compound), the TGI in assay [1], in [2], in [4], in [5], in assay [7] and in assay [8] was over 100 µM throughout. This molecule also yielded a TGI in [10] of over 100 µM.

Turning to `C[C@]12CC[C@@H]3c4ccc(O)cc4CC[C@H]3[C@@H]1CC[C@@H]2NS(=O)(=O)c1cccc(Br)c1`, the GI50 in assay [1] is 6.8 µM; in assay [2] it was 5.05 µM; in [3], 2.27 µM; in assay [4] it was 5.22 µM; in assay [5], 2.37 µM; in assay [7], 3.74 µM. Further, the values for the GI50 in assay [8], in [9] and in assay [10] were 10.4 µM, 2.15 µM and 2.59 µM, respectively. Besides, the TGI came to 18.6 µM in assay [1]; 17.6 µM in assay [2]; 7.58 µM in assay [3]; 17 µM in assay [4]; 7.63 µM in assay [5]; 10.9 µM in [7]. Also, the TGI amounted to 22.5 µM in [8], 6.2 µM in [9] and 12.7 µM in assay [10].

With `CC(NC(=O)C(N)Cc1ccccc1)C(=O)NC(Cc1ccc(O)cc1)C(=O)NC(Cc1c[nH]c2ccccc12)C(=O)NC(CCCCN)C(=O)NC(C(=O)NC(C)C(=O)NC(Cc1ccc2ccccc2c1)C(N)=O)C(C)C` (stereo unspecified) (H-FAYWKVA[2Nal]-NH2; configuration not given here), the TGI in assay [1] is over 12.5 µM; in assay [2], over 12.5 µM; in assay [3], over 12.5 µM; in assay [4] it was over 12.5 µM; in assay [6], > 12.5 µM and 31.9 µM; in assay [7], over 12.5 µM. In addition, the TGI in assay [8] was > 12.5 µM and 53.5 µM; in assay [9] it was > 12.5 µM and 36.5 µM; in assay [10], 32 µM. Also, the GI50 is 18 µM in assay [6], 23.1 µM in assay [8], 17.7 µM in assay [9] and 16.7 µM in [10].

As to `C/C=C(/C)C(=O)OC1C=C(CO)C(=O)C(OC(=O)/C(C)=C\C)C1C(C)C` (stereo unspecified), the GI50 was 2.27 µM in [1]; 0.61 µM in [3]; 0.618 µM in assay [4]; 0.315 µM in assay [5]; 0.403 µM in assay [6]; 0.416 µM in assay [7]. Moreover, the GI50 in assay [8] was 2.03 µM; in assay [9], 1.13 µM; in assay [10], 0.335 µM. Besides, the TGI worked out at 4.48 µM in assay [1]; 1.63 µM in assay [3]; 1.95 µM in assay [4]; 3.69 µM in assay [5]; 3.86 µM in assay [6]; 2.16 µM in [7]. Besides, the TGI was determined as 3.73 µM in assay [8], 2.54 µM in [9] and 3.89 µM in assay [10].

Take `COc1ccc2cc(C(=O)/C=C/c3ccc(OC)c(OC)c3)ccc2c1`: the GI50 in [1] is 32.4 µM; in assay [2], 43.4 µM; in assay [3], over 100 µM; in assay [4], 15.5 µM; in [5], 2.04 µM; in assay [6], 2.31 µM. Further, the results for the GI50 in [7], in assay [8] and in assay [10] were 1.43 µM, 18 µM and 5.97 µM, respectively. The TGI in assay [1] was over 100 µM; in assay [2], over 100 µM; in assay [3], over 100 µM; in assay [4], 80.1 µM; in assay [5], 6.16 µM; in [6], 25 µM. Also, the TGI in [7] was 7.33 µM; in assay [8], 41.6 µM; in assay [10] it was over 100 µM.

Consider `O=C=Nc1ccc(Cc2ccc(N=C=O)cc2)cc1` (tested in a mixture with another compound), for which the GI50 in assay [1], in [2], in [3], in assay [4], in assay [5] and in assay [7] was over 25 µg/mL each time. For the same molecule, the GI50 is over 25 µg/mL in assay [8], over 25 µg/mL in assay [9] and 1.33 µg/mL in [10]. For the same molecule, the TGI in assay [1], in assay [2], in [3], in [4], in assay [5] and in assay [7] was over 25 µg/mL in each case. In addition, the TGI in [8], in [9] and in assay [10] was over 25 µg/mL in each case.

Take `COc1ccc(/C=N/NC(=O)O)cc1`: the TGI in assay [1], in assay [2], in [3], in assay [4], in assay [5] and in assay [7] was over 100 µM in each case. For the same molecule, the TGI in [8], in [9] and in assay [10] was over 100 µM each time.

As to `N#Cc1c(NC(=O)CCC(=O)O)ccc2ccccc12`, the TGI in [1], in assay [2], in assay [3], in [4], in assay [7] and in assay [8] was over 100 µM throughout. The molecule further displayed a TGI in [9] of over 100 µM.

With `CC(=O)N1c2ccccc2C23CCN4CC5=CCOC(O)C(C5CC42)C13` (stereo unspecified), the TGI in [1], in assay [2], in assay [3], in [4], in assay [6] and in assay [7] was over 100 µM throughout. Also, the TGI in assay [10] is over 100 µM.

Consider `Cc1ccnc2c1NC(=O)c1cccnc1N2C1CC1`, for which the GI50 in [1], in assay [2], in assay [4], in assay [5], in assay [6] and in [7] was over 100 µM throughout. Further, the GI50 in assay [8], in assay [9] and in assay [10] was over 100 µM throughout. Further, the TGI in [1], in [2], in assay [4], in assay [5], in assay [6] and in assay [7] was over 100 µM in each case. The TGI in assay [8], in [9] and in assay [10] was over 100 µM each time.
